Test results reported in US12144869B2, “Anti-ROR1 antibody conjugates, compositions comprising anti ROR1 antibody conjugates, and methods of making and using anti-ROR1 antibody conjugates” (Sutro Biopharma, Inc., priority 2022, dated 2024).
Substitutions are numbered along the chain they refer to. Where two headings read alike, the source gives them in different places.

Legend:
[1] = tested on: ROR1 positive Ntera-2 cell; test: In vitro cell killing of ROR1 ADCs on Ntera-2; format: cell-based; settings: for EC50: read-out: NTERA-2 EC50
Protocol: (§1) Anti-ROR1 antibody was conjugated to different linker-warheads described herein at different DARs and the cell killing activity of the ADCs were evaluated on ROR1 positive Ntera-2 cell and ROR1 negative MCF7 cells.
(§2) Ntera-2 or MCF7 cell at 625 cells/25 μL were seeded in a 384-well flat bottom white polystyrene plate one day before the assay start. ADCs were formulated at 2× starting concentration. Filter sterilized samples were serial diluted (1:3) under sterile conditions and added onto cells in triplicates. Plates were cultured at 37° C. in a CO2 incubator for 120 hours. For cell viability measurement, 30 microliter of Cell Titer-Glo® reagent (Promega Corp, Madison, WI) was added into each well, and plates processed as per product instructions. Relative luminescence was measured on an ENVISION® plate reader (Perkin-Elmer; Waltham, MA). Relative luminescence readings were converted to % viability using untreated cells as controls. Data was fitted with non-linear regression analysis, using log (inhibitor) vs. response, variable slope, 4-parameter fit equation using GraphPad Prism.
To evaluate if the cell killing activity of anti-ROR1 ADCs is dependent on antibody binding to ROR1 expressed on cell surface, the same linker-warheads (LP3, LP4) were conjugated to an anti-GFP antibody and the cell killing of the anti-ROR1 and anti-GFP ADCs were evaluated in cell killing assays on ROR1 positive Ntera-2 cell and ROR1 negative MCF7 cells. […]

[2] = tested on: ROR1 negative MCF7 cells; test: In vitro cell killing of ROR1 ADCs on MCF7; format: cell-based; settings: for EC50: read-out: MCF-7 EC50
Protocol: as §1, §2
To evaluate if the cell killing activity of anti-ROR1 ADCs is dependent on antibody binding to ROR1 expressed on cell surface, the same linker-warheads (LP3, LP4) were conjugated to an anti-GFP antibody and the cell killing of the anti-ROR1 and anti-GFP ADCs were evaluated in cell killing assays on ROR1 positive Ntera-2 cell and ROR1 negative MCF7 cells.

[3] = biological target: T1, hROR1 (ROR1-extracellular domain) (Homo sapiens, UniProt Q01973); test: Biacore off-rate and kinetic analysis, hROR1 extracellular domain; format: binding; settings: for KD (SPR binding kinetics): hROR1, 1987-C05 variants
T1 construct: the ROR1-frizzled domain (hROR1-Fz) or the ROR1-extracellular domain (hROR1); purchased Acro Biosystems
Protocol: (§3) Anti-Fc polyclonal antibodies were immobilized onto a CMS chip (GE Life Sciences) using amine coupling chemistry (from Amine Coupling Kit, GE Life Sciences). The immobilization steps were carried out at a flow rate of 25 μL/min in 1×HBS-EP+buffer (GE Life Sciences; 10× Stock diluted before use). The sensor surfaces were activated for 7 min with a mixture of NHS (0.05 M) and EDC (0.2 M). The Anti-Fc antibodies were injected over all 4 flow cells at a concentration of 25 ug/ml in 10 mM sodium acetate, pH 4.5, for 7 min. Ethanolamine (1 M, pH 8.5) was injected for 7 min to block any remaining activated groups. An average of 12,000 response units (RU) of capture antibody was immobilized on each flow cell.
(§4) Off-rate and kinetic binding experiments were performed at 25° C. using 1×HBS-EP+buffer. Test and control antibodies were injected over the anti-Fc surface at concentrations of 5-10 μg/mL for 12 seconds at a flow rate of 10 μL/min on flow cells 2, 3 and 4, followed by a buffer wash for 30 seconds at the same flow rate. Kinetic characterization of antibody samples was carried out with a range of antigen concentrations from 1-100 nM and 1 injection of 0 nM antigen (for example, 100, 50, 25, 6.25, 1.56 and 0 nM). After capturing ligand (antibody) on the anti-Fc surface, the analyte (hROR1, Fz or Kr domains, Acro Biosystems, Delaware) was bound for 180 seconds, followed by a 600 second dissociation phase at a flow rate of 50 μL/min. Between each ligand capture and analyte binding cycle, regeneration was carried out using 2 injections of 10 mM Glycine pH 2.0 for 30 seconds at 30 μL/min, followed by a 30 second buffer wash step.
(§5) The data was fit with the Biacore T200 Evaluation software, using a 1-1 Langmuir binding model. KD (affinity, nM) was determined as a ratio of the kinetic rate constants calculated from the fits of the association and dissociation phases.
(§6) For anti-CD3-LC-containing IgGs that had detectable ROR1-binding in ELISA (1944-A07 and 1987-C05 variants), those antibodies were further tested for binding by surface plasmon resonance (SPR). Binding kinetics were assessed to the ROR1-frizzled domain (hROR1-Fz) or the ROR1-extracellular domain (hROR1) for 1944-A07 and 1987-C05 variants, respectively. Briefly, anti-ROR1 antibodies were captured via anti-human Fc polyclonal antibodies immobilized to a CM5 chip, and ROR1 recombinant proteins were flowed across the surface to assess binding kinetics. hROR1 or hROR1-Fz domain (Acro Biosystems, Delaware) binding was tested at 100, 50, 25, 6.25, 1.5625 nM. The data was fit with the Biacore™ T200 Evaluation software, using a 1-1 Langmuir binding model. KD (affinity, nM) was determined as a ratio of the kinetic rate constants calculated from the fits of the association and dissociation phases.

[4] = Differential scanning fluorimetry (protein thermal shift; TM1/TM2); format: physicochemical; settings: Table 11; melting temperature of the Fab domain
Protocol: A protein thermal shift assay was carried out by mixing the protein to be assayed with an environmentally sensitive dye (SYPRO Orange, Life Technologies Cat #S-6650) in a phosphate buffered solution (PBS), and monitoring the fluorescence of the mixture in real time as it underwent controlled thermal denaturation. Protein solutions between 0.2-2 mg/mL were mixed at a 1-1 volumetric ratio with a 1-500 PBS-diluted solution of SYPRO Orange (SYPRO Orange stock dye is 5000× in DMSO). 10 μL aliquots of the protein-dye mixture were dispensed in quadruplicate in a 384-well microplate (Bio-Rad Cat #MSP-3852), and the plate was sealed with an optically clear sealing film (Bio-Rad Cat #MSB-1001) and placed in a 384-well plate real-time thermocycler (Bio-Rad CFX384 Real Time System). The protein-dye mixture was heated from […], at increments of 0.1° C. per cycle (˜1.5° C. per minute), allowing 3 seconds of equilibration at each temperature before taking a fluorescence measurement. At the end of the experiment, the transition melting temperatures (TM1 and TM2) were determined using the Bio-Rad CFX manager software. TM1 represents the melting temperature of the Fc domain. TM2 represents the melting temperature of the Fab domain.
For the thermal stability of an antibody, the first melting peak (Tm1) coincides with the unfolding of the CH2 domain (FC stability), while the second melting peak (Tm2) occurs upon unfolding of the Fab domain.

[5] = tested on: ROR1 or ROR2; test: ROR2 cross-reactivity ELISA (ROR1/ROR2 signal ratio); format: binding; settings: Table 11; SP34 light chain
Protocol: Antibodies were tested for their ability to bind to either ROR1 or ROR2 via ELISA. Briefly, 2 μg/mL of ROR1 or ROR2 (Acro Biosystems) were coated to 384-well polystyrene plates for 1 hr at 30° C. in 0.1 M bicarbonate pH8.9 buffer before they were washed and blocked with 2% BSA in PBST (PBS, 0.1% Tween20) for 1 hr. Antibody variants were diluted to 2.5 μg/mL and further serially diluted 3-fold before 30 μL was applied to the ELISA plates for binding (1 hr at 30° C.). Antibody binding was detected via HRP-conjugated anti-human Fc antibodies (Jackson Immunoresearch) and detection with SuperSignal ELISA Pico Chemiluminescent Substrate (Pierce). Cross-reactivity was reported as a ratio of ROR1-ELISA signal over ROR2-ELISA signal at the highest dilution tested.

[6] = biological target: T2, human ROR1-Fz (Homo sapiens, UniProt Q01973); test: Biacore off-rate and kinetic analysis, ROR1-Fz; format: binding; settings: Table 11; SP34 light chain
T2 construct: Frizzled (Fz, residues 165-305); His6 (C); purchased Acro Biosystems; host or cells: HEK293
Protocol: as §3, §4, §5, §6

[7] = Table 13, ROR1 positive Ntera-2, 120 hours
[8] = Table 13, ROR1 negative MCF7, 120 hours
[9] = NTERA2, Table 13, ROR1 positive Ntera-2, 120 hours
[10] = Homo sapiens, Table 13, ROR1 negative MCF7, 120 hours
[11] = Table 7, sample ROR1 ECD, 1987-C05 HC with different LCs

CC[C@@]1(O)C(=O)OCc2c1cc1n(c2=O)Cc2c-1nc1cc(F)c(C)c3c1c2[C@@H](NC(=O)CO)CC3 [Dxd]
NTERA-2 Span [1, 7]: 99%
EC50 [1, 7]: 0.26 nM
MCF-7 Span [2, 8]: 63%
EC50 [2, 8]: 0.83 nM

CC[C@@]1(O)C(=O)OCc2c1cc1n(c2=O)Cc2c-1nc1cc(F)c(C)c3c1c2[C@@H](NC(=O)CN)CC3 [Gly-Exatecan]
EC50 [1, 9]: 6.72 nM
NTERA-2 Span [1, 7]: 98%
EC50 [2, 10]: 0.169 nM
MCF-7 Span [2, 8]: 73%

COc1cccc2c1C(=O)c1c(O)c3c(c(O)c1C2=O)C[C@@](O)(C(=O)NCCN)C[C@@H]3O[C@H]1C[C@H]2[C@H](O[C@@H]3[C@@H](OC)OCCN32)[C@H](C)O1 [PNU-EDA]
EC50 [1, 9]: 0.026 nM
EC50 ([1]; NTERA2, Table 15, ROR1 positive Ntera-2 cells, 120 hours, Cell Titer-Glo): 0.027 nM
NTERA-2 Span [1, 7]: 99%
NTERA-2 Span (%) ([1]; Table 15, ROR1 positive Ntera-2 cells, 120 hours, Cell Titer-Glo): 98%
EC50 [2, 10]: 0.3 nM
EC50 ([2]; Homo sapiens, Table 15, ROR1 negative MCF7 cells, 120 hours, Cell Titer-Glo): 0.25 nM
MCF-7 Span [2, 8]: 85%
MCF-7 Span (%) ([2]; Table 15, ROR1 negative MCF7 cells, 120 hours, Cell Titer-Glo): 85%

B1: 1987-C05 HC w/hSP34 LC3: HC of lead antibody 1987-C05 co-expressed with the LC of anti-CD3 antibody "hSP34-LC3" (antibody, V domains shown)
VH: EVQLVESGGGLVQPGGSLRLSCAASGFNISDYDIHWVRQAPGKGLEWVGGIDPDDGSTDYADSVKGRFTISADTSKNTAYLQMNSLRAEDTAVYYCARDYGVFDYWGQGTLVTVSS
VL: QTVVTQEPSLTVSPGGTVTLTCGSSTGAVTSGYYPNWFQQKPGQAPRGLIGGTKFLAPGTPARFSGSLLGGKAALTLSGVQPEDEAEYYCALWYSNRWVFGGGTQLTVTG
KD [3, 11]: Not detected
KD (SPR binding kinetics) [3]: no detectable binding

B2: 1987-C05 HC w/hUCHT1 LC3: HC of lead antibody 1987-C05 co-expressed with the LC of anti-CD3 antibody "hUCHT1-LC3" (antibody, V domains shown)
VH: B1 VH
VL: DIQMTQSPSTLSASVGDRVTITCRASQDIRNYLNWYQQKPGKAPKLLIYYTSRLHSGVPSRFSGSGSGTEYTLTISSLQPDDFATYYCQQGNTLPWTFGGGTKVEIK
ka1 [3, 11]: 566000 M⁻¹ s⁻¹
kd1 [3, 11]: 0.000645 s⁻¹

B3: 1987-C05 HC w/hOKT3 LC1: HC of lead antibody 1987-C05 co-expressed with the LC of anti-CD3 antibody "hOKT3-LC1" (antibody, V domains shown)
VH: B1 VH
VL: DIQMTQSPSSLSASVGDRVTITCSASSSVSYMNWYQQKPGKAPKRLIYDTSKLASGVPSRFSGSGSGTEYTLTISSLQPEDFATYYCQQWSSNPFTFGQGTKLEIK
KD [3, 11]: Not detected
KD (SPR binding kinetics) [3]: no detectable binding

B4: SRP2196-A07 (antibody, V domains shown)
VH: EVQLVESGGGLVQPGGSLRLSCAASGFNITGYYIHWVRQAPGKGLEWVGQISPNSGSTYYADSVKGRFTISADTSKNTAYLQMSSLRAEDTAVYYCARDSRRYVRGWDYWGQGTLVTVSS
VL: QAVVTQESALTTSPGETVTLTCRSSTGAVTTSNYANWVQEKPDHLFTGLIGGTNKRAPGVPARFSGSLIGDKAALTITGAQTEDEAIYFCALWYSNLWVFGGGTKLTVL
TM2 (° C.) [4]: 74 °C
ROR1/ROR2 ELISA ratio [5]: 16.3
Biacore human ROR1-Fz ka [6]: 186000 M⁻¹ s⁻¹
Biacore human ROR1-Fz kd [6]: 0.00064 s⁻¹

B5: SRP2196-A03 (antibody, V domains shown)
VH: B4 VH with G31Q, Y33H, Q50Y, Y59H, Y60E, S84N
VL: B4 VL
TM2 (° C.) [4]: 70 °C
Biacore human ROR1-Fz ka [6]: 169000 M⁻¹ s⁻¹
Biacore human ROR1-Fz kd [6]: 0.000275 s⁻¹
